Measurements from PMC6001238, “Iterative Chemical Engineering of Vancomycin Leads to Novel Vancomycin Analogs With a High in Vitro Therapeutic Index” (Frontiers in Microbiology, 2018).
Values after ≈ are worked out from the molar mass of the structure shown. Like-named read-outs stand apart in the source and are kept apart here.

Columns and labels:
[1] = tested on: E. faecalis VRE 6; experiment: MIC, broth microdilution, vancomycin-resistant E. faecalis VRE 6 (VanA); type: cell-based, Enterococcus faecalis; conditions: for MIC: Enterococcus faecalis VRE 6 (vancomycin-resistant), read-out: MIC; for MIC-fold improvement vs. vancomycin: VRE 6, ratio of MIC of vancomycin and MIC of analogue
How it was run: (§1)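 Serial dilutions in broth, set up per CLSI guidance, gave the MIC. Where noted, test analogues or comparator antibiotics were combined with vancomycin at 10 μM final. Controls: ultrapure water, broth without inoculum.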

[2] = tested on: L1210, CEM and HeLa cell lines; experiment: Cytostatic activity, average or summary over L1210, CEM and HeLa; type: cell-based; conditions: average of L1210, CEM and HeLa; read-out: Toxicity (IC50) Average
How it was run: (§2)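 Suspensions (300,000–500,000 cells/mL) combined with equal volumes of diluted compound; 37°C; L1210 2 d / CEM 3 d / HeLa 4 d; counted by Coulter counter; IC50 vs untreated wells.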

[3] = tested on: Clostridium difficile AIU ribotype 027; experiment: MIC, plate drop assay, C. difficile AIU ribotype 027; type: cell-based; conditions: C. difficile AIU ribotype 027
Method: (§3) Bacterial lawns of both C. difficile strains were prepared by adding 0.5 mL overnight culture to 8 mL sloppy BHI agar (0.4% agar) supplemented with 1.5 g/L CaCl2⋅2H2O and 81.2 g/L MgCl2⋅6H2O, and pouring the mixture into Petri plates. A twofold dilution series of the selected vancomycin analogs, vancomycin ([…]) and daptomycin (25 μM) was spotted (10 μL) on the bacterial lawn. Spots were air-dried and the plates were incubated overnight at 37°C in an anaerobic cabinet. Ultrapure water was included as negative control. The assay was performed in triplicate. Inhibition was observed by cleared spots.

[4] = tested on: E. faecalis VRE 37; experiment: MIC, broth microdilution, vancomycin-resistant E. faecalis VRE 37 (VanA); type: cell-based, Enterococcus faecalis; conditions: for MIC: Enterococcus faecalis VRE 37 (vancomycin-resistant), read-out: MIC; for MIC-fold improvement vs. vancomycin: VRE 37, ratio of MIC of vancomycin and MIC of analogue
How it was run: as §1

[5] = tested on: Clostridium difficile ATJ ribotype 014/20; experiment: MIC, plate drop assay, C. difficile ATJ ribotype 014/20; type: cell-based; conditions: for MIC-fold improvement vs. vancomycin: C. difficile ATJ ribotype 014/20
Method: as §3

[6] = tested on: human cervix carcinoma (HeLa) cells; experiment: Cytostatic activity, HeLa cell proliferation; type: cell-based; conditions: mean ± SD of three experiments; highest concentration tested 250 µM; 4 days; read-out: Toxicity (IC50) HeLa
How it was run: as §2

[7] = tested on: E. faecalis VRE 29; experiment: MIC, broth microdilution, vancomycin-resistant E. faecalis VRE 29 (VanA); type: cell-based, Enterococcus faecalis; conditions: for MIC: Enterococcus faecalis VRE 29 (vancomycin-resistant), read-out: MIC; for MIC-fold improvement vs. vancomycin: VRE 29, ratio of MIC of vancomycin and MIC of analogue
How it was run: as §1

[8] = tested on: MRSA KS89; experiment: MIC, broth microdilution, MRSA KS89; type: cell-based, Staphylococcus aureus; conditions: for MIC-fold improvement vs. vancomycin: ratio of MIC of vancomycin and MIC of analogue; for MIC: read-out: MIC
How it was run: as §1

[9] = tested on: MRSA KS1; experiment: MIC, broth microdilution, MRSA KS1; type: cell-based, Staphylococcus aureus; conditions: for MIC-fold improvement vs. vancomycin: MRSA KS1, ratio of MIC of vancomycin and MIC of analogue; for MIC: Staphylococcus aureus MRSA KS1, read-out: MIC
How it was run: as §1

[10] = tested on: MRSA KS2; experiment: MIC, broth microdilution, MRSA KS2; type: cell-based, Staphylococcus aureus; conditions: for MIC-fold improvement vs. vancomycin: MRSA KS2, ratio of MIC of vancomycin and MIC of analogue; for MIC: Staphylococcus aureus MRSA KS2, read-out: MIC
How it was run: as §1

[11] = tested on: E. faecalis VSE 1; experiment: MIC, broth microdilution, vancomycin-sensitive E. faecalis (VSE 1); type: cell-based, Enterococcus faecalis; conditions: for MIC: Enterococcus faecalis VSE 1 (vancomycin-sensitive), read-out: MIC; for MIC-fold improvement vs. vancomycin: VSE 1, ratio of MIC of vancomycin and MIC of analogue
How it was run: as §1

[12] = tested on: human T-lymphocyte (CEM) cells; experiment: Cytostatic activity, CEM cell proliferation; type: cell-based; conditions: mean ± SD of three experiments; highest concentration tested 250 µM; 3 days; read-out: Toxicity (IC50) CEM
How it was run: as §2

[13] = tested on: S. aureus VSSA (ATCC 6538); experiment: MIC, broth microdilution, vancomycin-sensitive S. aureus (VSSA/MSSA, ATCC 6538); type: cell-based, Staphylococcus aureus; conditions: for MIC: Staphylococcus aureus VSSA, read-out: MIC; for MIC-fold improvement vs. vancomycin: VSSA, ratio of MIC of vancomycin and MIC of analogue
How it was run: as §1

[14] = tested on: S. aureus VISA/HIP5827; experiment: MIC, broth microdilution, vancomycin-intermediate S. aureus VISA HIP5827; type: cell-based, Staphylococcus aureus; conditions: for MIC: Staphylococcus aureus VISA/HIP5827, read-out: MIC; for MIC-fold improvement vs. vancomycin: VISA/HIP5827, ratio of MIC of vancomycin and MIC of analogue
How it was run: as §1

[15] = tested on: MRSA KS6; experiment: MIC, broth microdilution, MRSA KS6; type: cell-based, Staphylococcus aureus; conditions: for MIC-fold improvement vs. vancomycin: MRSA KS6, ratio of MIC of vancomycin and MIC of analogue; for MIC: Staphylococcus aureus MRSA KS6, read-out: MIC
How it was run: as §1

[16] = tested on: Murine leukemia (L1210) cells; experiment: Cytostatic activity, L1210 cell proliferation; type: cell-based; conditions: mean ± SD of three experiments; highest concentration tested 250 µM; 2 days; read-out: Toxicity (IC50) L1210
How it was run: as §2

[17] = tested on: E. faecalis VRE 53; experiment: MIC, broth microdilution, vancomycin-resistant E. faecalis VRE 53 (VanA); type: cell-based, Enterococcus faecalis; conditions: for MIC: Enterococcus faecalis VRE 53 (vancomycin-resistant), read-out: MIC; for MIC-fold improvement vs. vancomycin: VRE 53, ratio of MIC of vancomycin and MIC of analogue
How it was run: as §1

[18] = tested on: S. aureus VRSA; experiment: MIC, broth microdilution, vancomycin-resistant S. aureus (VRSA); type: cell-based, Staphylococcus aureus; conditions: for MIC: Staphylococcus aureus VRSA, read-out: MIC; for MIC-fold improvement vs. vancomycin: VRSA, ratio of MIC of vancomycin and MIC of analogue
How it was run: as §1

SMILES	MIC [1]	MIC-fold improvement vs. vancomycin [1]	IC50 [2]	MIC-fold improvement vs. vancomycin [3]	MIC [4]	IC50 [6]	MIC [7]	MIC-fold improvement vs. vancomycin [7]	MIC [11]	MIC-fold improvement vs. vancomycin [11]	IC50 [12]	MIC [13]	MIC-fold improvement vs. vancomycin [13]	MIC [14]	MIC-fold improvement vs. vancomycin [14]	IC50 [16]	MIC [17]	MIC-fold improvement vs. vancomycin [17]	MIC [18]	MIC-fold improvement vs. vancomycin [18]	other results
CNC(CC(C)C)C(=O)NC1C(=O)NC(CC(N)=O)C(=O)NC2C(=O)NC3C(=O)NC(C(=O)NC(C(=O)NCCNC(=O)C=Cc4ccccc4)c4cc(O)cc(O)c4-c4cc3ccc4O)C(O)c3ccc(c(Cl)c3)Oc3cc2cc(c3OC2OC(CO)C(O)C(O)C2OC2CC(C)(N)C(O)C(C)O2)Oc2ccc(cc2Cl)C1O (centres unmarked) [Vanc-21]	1.56 µM (≈ 2.53 µg/mL)	128	> 250 µM	4	12.5 µM (≈ 20.3 µg/mL)	> 250 µM	12.5 µM (≈ 20.3 µg/mL)	32	0.39 µM (≈ 0.632 µg/mL)	4	> 250 µM	0.78 µM (≈ 1.26 µg/mL)	1	0.78 µM (≈ 1.26 µg/mL)	8	> 250 µM	12.5 µM (≈ 20.3 µg/mL)	32	1.56 µM (≈ 2.53 µg/mL)	64	MIC-fold improvement vs. vancomycin [5]: <1.4; MIC ([5]; C. difficile ATJ ribotype 014/20, plate drop assay): >25 µM; MIC-fold improvement vs. vancomycin ([8]; MRSA KS8): 1; MIC ([8]; Staphylococcus aureus MRSA KS8): 0.78 µM (≈ 1.26 µg/mL); MIC-fold improvement vs. vancomycin [9]: 1; MIC [9]: 0.78 µM (≈ 1.26 µg/mL); MIC-fold improvement vs. vancomycin [10]: 2; MIC [10]: 0.39 µM (≈ 0.632 µg/mL); MIC-fold improvement vs. vancomycin [15]: 1; MIC [15]: 0.78 µM (≈ 1.26 µg/mL)
CN[C@H](CC(C)C)C(=O)N[C@H]1C(=O)N[C@@H](CC(N)=O)C(=O)N[C@H]2C(=O)N[C@H]3C(=O)N[C@H](C(=O)N[C@H](C(=O)NCC(=O)Nc4ccc5cc6ccccc6cc5c4)c4cc(O)cc(O)c4-c4cc3ccc4O)[C@H](O)c3ccc(c(Cl)c3)Oc3cc2cc(c3O[C@@H]2O[C@H](CO)[C@@H](O)[C@H](O)[C@H]2O[C@H]2C[C@](C)(N)[C@H](O)[C@H](C)O2)Oc2ccc(cc2Cl)[C@H]1O [Vanc-59]	1.56 µM (≈ 2.62 µg/mL)	128	96 µM	29	1.56 µM (≈ 2.62 µg/mL)	88 ± 37 µM	3.13 µM (≈ 5.26 µg/mL)	128	0.20 µM (≈ 0.336 µg/mL)	8	23 ± 6 µM	0.39 µM (≈ 0.656 µg/mL)	2	0.39 µM (≈ 0.656 µg/mL)	16	177 ± 90 µM	12.5 µM (≈ 21 µg/mL)	32	0.20 µM (≈ 0.336 µg/mL)	512	MIC-fold improvement vs. vancomycin [4]: 256; MIC-fold improvement vs. vancomycin [5]: 22
CCCCCCn1cc(-c2ccc(NC(=O)CNC(=O)C3NC(=O)C4NC(=O)C(NC(=O)C5NC(=O)C(CC(N)=O)NC(=O)C(NC(=O)C(CC(C)C)NC)C(O)c6ccc(c(Cl)c6)Oc6cc5cc(c6OC5OC(CO)C(O)C(O)C5OC5CC(C)(N)C(O)C(C)O5)Oc5ccc(cc5Cl)C4O)c4ccc(O)c(c4)-c4c(O)cc(O)cc43)cc2)nn1 (centres unmarked) [Vanc-92]	6.25 µM (≈ 10.8 µg/mL)	32	75 µM	–	6.25 µM (≈ 10.8 µg/mL)	98 ± 12 µM	6.25 µM (≈ 10.8 µg/mL)	64	0.10 µM (≈ 0.173 µg/mL)	16	31 ± 7 µM	0.20 µM (≈ 0.347 µg/mL)	4	0.78 µM (≈ 1.35 µg/mL)	8	95 ± 75 µM	25 µM (≈ 43.3 µg/mL)	16	0.78 µM (≈ 1.35 µg/mL)	128	MIC-fold improvement vs. vancomycin [4]: 64; MIC-fold improvement vs. vancomycin ([8]; MRSA KS8 (head; KS89 in title)): 4; MIC ([8]; Staphylococcus aureus MRSA KS8 (head; KS89 in title)): 0.20 µM (≈ 0.347 µg/mL); MIC-fold improvement vs. vancomycin [9]: 4; MIC [9]: 0.20 µM (≈ 0.347 µg/mL); MIC-fold improvement vs. vancomycin [10]: 4; MIC [10]: 0.20 µM (≈ 0.347 µg/mL); MIC-fold improvement vs. vancomycin [15]: 4; MIC [15]: 0.20 µM (≈ 0.347 µg/mL)
